According to ChEMBL document CHEMBL4004781, “Synthesis, biological evaluation, docking study and ulcerogenicity profiling of some novel quinoline-2-carboxamides as dual COXs/LOX inhibitors endowed with anti-inflammatory activity” (Eur J Med Chem, 2017):

How the values were obtained:
[1] = target: T1, Prostaglandin G/H synthase 1 (Ovis aries, UniProt P05979); assay: Inhibition of ovine COX1 using arachidonic acid as substrate assessed as decrease in PGF2 production preincubated for 15 mins followed by substrate addition measured after 2 mins by enzyme immunoassay
T1 sequence (P05979 whole entry): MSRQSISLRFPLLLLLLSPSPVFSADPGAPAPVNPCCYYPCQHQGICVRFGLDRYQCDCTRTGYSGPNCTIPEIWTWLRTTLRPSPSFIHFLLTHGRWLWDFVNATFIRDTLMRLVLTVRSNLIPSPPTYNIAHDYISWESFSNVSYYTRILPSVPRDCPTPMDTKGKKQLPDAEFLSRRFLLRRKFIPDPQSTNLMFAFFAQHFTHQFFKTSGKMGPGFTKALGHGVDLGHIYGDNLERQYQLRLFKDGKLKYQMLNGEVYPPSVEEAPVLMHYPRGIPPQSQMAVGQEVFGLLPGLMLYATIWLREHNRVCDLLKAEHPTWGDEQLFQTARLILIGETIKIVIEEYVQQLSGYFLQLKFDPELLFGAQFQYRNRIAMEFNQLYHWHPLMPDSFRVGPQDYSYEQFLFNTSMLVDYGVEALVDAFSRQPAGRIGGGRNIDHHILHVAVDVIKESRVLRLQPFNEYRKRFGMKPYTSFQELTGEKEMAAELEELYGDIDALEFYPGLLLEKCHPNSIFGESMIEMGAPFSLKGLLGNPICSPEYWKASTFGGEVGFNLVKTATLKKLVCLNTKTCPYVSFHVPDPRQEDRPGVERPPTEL

[2] = target: T2, Prostaglandin G/H synthase 2 (Homo sapiens, UniProt P35354); assay: Inhibition of recombinant human COX2 using arachidonic acid as substrate assessed as decrease in PGF2 production preincubated for 15 mins followed by substrate addition measured after 2 mins by enzyme immunoassay
T2 sequence (P35354 whole entry): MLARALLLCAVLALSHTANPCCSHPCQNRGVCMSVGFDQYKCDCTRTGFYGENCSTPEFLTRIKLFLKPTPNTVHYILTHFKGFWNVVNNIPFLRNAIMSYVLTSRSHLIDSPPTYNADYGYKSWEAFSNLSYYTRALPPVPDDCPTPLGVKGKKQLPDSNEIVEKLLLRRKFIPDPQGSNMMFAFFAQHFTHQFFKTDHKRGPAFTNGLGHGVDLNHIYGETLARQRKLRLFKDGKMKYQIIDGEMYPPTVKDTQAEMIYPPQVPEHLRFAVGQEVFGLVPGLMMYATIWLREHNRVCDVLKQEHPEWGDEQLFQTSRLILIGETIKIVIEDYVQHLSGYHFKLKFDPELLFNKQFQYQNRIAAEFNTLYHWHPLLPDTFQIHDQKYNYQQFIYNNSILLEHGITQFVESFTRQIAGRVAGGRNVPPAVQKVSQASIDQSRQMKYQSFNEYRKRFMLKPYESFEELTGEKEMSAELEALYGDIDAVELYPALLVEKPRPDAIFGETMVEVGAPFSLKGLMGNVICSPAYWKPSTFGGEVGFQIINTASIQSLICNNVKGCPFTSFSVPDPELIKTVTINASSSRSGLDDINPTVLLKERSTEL

[3] = Selectivity ratio of IC50 for ovine COX1 to IC50 for recombinant human COX2
[4] = test system: Rattus norvegicus; assay: Antiinflammatory activity in albino rat assessed as inhibition of carrageenan-induced paw edema at 28 umol/kg, ip administered 1 hr post carrageenan challenge measured at 1 hr post compound dosing relative to control; format: functional
[5] = test system: Rattus norvegicus; assay: Antiinflammatory activity in albino rat assessed as inhibition of carrageenan-induced paw edema at 28 umol/kg, ip administered 1 hr post carrageenan challenge measured at 3 hrs post compound dosing relative to control; format: functional
[6] = test system: Rattus norvegicus; assay: Antiinflammatory activity in albino rat assessed as inhibition of carrageenan-induced paw edema at 28 umol/kg, ip administered 1 hr post carrageenan challenge measured at 5 hrs post compound dosing relative to control; format: functional
[7] = Inhibition of soybean 15-LOX assessed as decrease in leukotriene formation by enzyme immunoassay; design: species or system Glycine max
[8] = test system: Rattus norvegicus; assay: Ulcerogenic effect in albino rat assessed as ulcer index at 50 umol/kg, po qd administered for 3 days measured 1 hr post last dose; format: toxicity, organism-based; conditions: in vivo
[9] = test system: Rattus norvegicus; assay: Ulcerogenic effect in albino rat assessed as congestion of blood vessels at 50 umol/kg, po qd administered for 3 days measured 1 hr post last dose by hematoxylin/eosin staining-based light microscopic method; format: toxicity, organism-based; conditions: in vivo
[10] = test system: Rattus norvegicus; assay: Ulcerogenic effect in albino rat assessed as effect on architecture of gastric mucosa at 50 umol/kg, po qd administered for 3 days measured 1 hr post last dose by hematoxylin/eosin staining-based light microscopic method; format: toxicity, organism-based; conditions: in vivo
[11] = test system: Rattus norvegicus; assay: Ulcerogenic effect in albino rat assessed as effect on architecture of gastric mucosal surface at 50 umol/kg, po qd administered for 3 days measured 1 hr post last dose by scanning electron microscopic method; format: toxicity, organism-based; conditions: in vivo
[12] = test system: Rattus norvegicus; assay: Ulcerogenic effect in albino rat assessed as loss of demarcation between surface mucus cells at 50 umol/kg, po qd administered for 3 days measured 1 hr post last dose by scanning electron microscopic method; format: toxicity, organism-based; conditions: in vivo
[13] = test system: Rattus norvegicus; assay: Ulcerogenic effect in albino rat assessed as maceration of gastric mucosa at 50 umol/kg, po qd administered for 3 days measured 1 hr post last dose by hematoxylin/eosin staining-based light microscopic method; format: toxicity, organism-based; conditions: in vivo
[14] = test system: Rattus norvegicus; assay: Ulcerogenic effect in albino rat assessed as lymphocytic infiltration at 50 umol/kg, po qd administered for 3 days measured 1 hr post last dose by hematoxylin/eosin staining-based light microscopic method; format: toxicity, organism-based; conditions: in vivo
[15] = test system: Rattus norvegicus; assay: Ulcerogenic effect in albino rat assessed as submucosal edema at 50 umol/kg, po qd administered for 3 days measured 1 hr post last dose by hematoxylin/eosin staining-based light microscopic method; format: toxicity, organism-based; conditions: in vivo
[16] = test system: Rattus norvegicus; assay: Ulcerogenic effect in albino rat assessed as exfoliation of superficial epithelial cells at 50 umol/kg, po qd administered for 3 days measured 1 hr post last dose by hematoxylin/eosin staining-based light microscopic method; format: toxicity, organism-based; conditions: in vivo
[17] = test system: Rattus norvegicus; assay: Ulcerogenic effect in albino rat assessed as induction of necrosis in gastric mucosal cells at 50 umol/kg, po qd administered for 3 days measured 1 hr post last dose by hematoxylin/eosin staining-based light microscopic method; format: toxicity, organism-based; conditions: in vivo
[18] = test system: Rattus norvegicus; assay: Ulcerogenic effect in albino rat assessed as complete shedding of surface mucous cells leaving underlying gastric pit walls and openings with honeycomb shape at 50 umol/kg, po qd administered for 3 days measured 1 hr post last dose by scanning electron microscopic method; format: toxicity, organism-based; conditions: in vivo
[19] = Inhibition of soybean 15-LOX; design: species or system Glycine max

| IC50 [1] [µM] | IC50 [2] [µM] | IC50 [7] [µM] | Structure (SMILES) | Ratio IC50 [3] | inhibition in vivo at 28 µmol/kg [4] [%] | inhibition in vivo at 28 µmol/kg [5] [%] | inhibition in vivo at 28 µmol/kg [6] [%] | other results |
| --- | --- | --- | --- | --- | --- | --- | --- | --- |
| 9.8 | 1.91 | – | Cc1c(C(=O)NCCc2ccc(N3CCCC3C)cc2)nc2ccc(Cl)cc2c1O (stereo unspecified) | 5.1 | 41 | 48 | 49.7 | – |
| 7.8 | 1.41 | 6.54 | Cc1c(C(=O)NC2CCCCC2)nc2ccc(Cl)cc2c1O | 5.53 | 43.5 | 50.1 | 52 | – |
| 11.4 | 2.54 | 9.87 | Cc1c(C(=O)NCCc2ccccc2)nc2ccc(Cl)cc2c1O | 4.48 | 35.8 | 40.9 | 43.4 | – |
| 10.7 | 2.81 | 8.43 | Cc1c(C(=O)N2CCNCC2)nc2ccc(Cl)cc2c1O | 3.8 | 31.1 | 37.5 | 38 | – |
| 7.5 | 1.69 | 6.74 | Cc1c(C(=O)NCCc2ccc(N3CCCC3)cc2)nc2ccc(Cl)cc2c1O | 4.43 | 41 | 48 | 49.9 | – |
| 12.4 | 3.14 | 10.4 | Cc1c(C(=O)N2CCCCC2)nc2ccc(Cl)cc2c1O | 3.94 | 30.1 | 35.4 | 36.8 | – |
| 10.4 | 2.11 | 7.32 | Cc1c(C(=O)NCCc2ccc(N3CCCCC3)cc2)nc2ccc(Cl)cc2c1O | 4.92 | 39.8 | 46.9 | 48.2 | – |
| 13.1 | 3.54 | – | Cc1c(C(=O)NC2CCCN(Cc3ccccc3)C2)nc2ccc(Cl)cc2c1O (stereo unspecified) | 3.7 | 31.4 | 35.9 | 37.8 | – |

Second part, the compound before the results:

| Structure (SMILES) | IC50 [1] [µM] | IC50 [2] [µM] | IC50 [7] [µM] | Ratio IC50 [3] | inhibition in vivo at 28 µmol/kg [4] [%] | inhibition in vivo at 28 µmol/kg [5] [%] | inhibition in vivo at 28 µmol/kg [6] [%] | other results |
| --- | --- | --- | --- | --- | --- | --- | --- | --- |
| Cc1c(C(=O)NCc2nc3ccccc3[nH]2)nc2ccc(Cl)cc2c1O | 7.9 | 1.21 | 6.18 | 6.52 | 45.2 | 50.1 | 59.4 | UI [8]: 2.66; Activity [9]: Toxic; Activity [10]: Non-Toxic; Activity [11]: Non-Toxic; Activity [12]: Toxic |
| CCOC(=O)C(Cc1ccccc1)NC(=O)c1nc2ccc(Cl)cc2c(O)c1C (stereo unspecified) | 9.6 | 1.91 | 7.14 | 5.02 | 40.5 | 47.3 | 49 | – |
| COc1ccc2c(c1)c(CC(=O)O)c(C)n2C(=O)c1ccc(Cl)cc1 [INDOMETHACIN] | – | – | – | – | – | – | – | UI [8]: 17.23; Activity [13]: Toxic; Activity [9]: Toxic; Activity [14]: Toxic; Activity [15]: Toxic; Activity [16]: Toxic; Activity [17]: Toxic; Activity [18]: Toxic |
| Cc1c(C(=O)N(C)c2ccccc2)nc2ccc(Cl)cc2c1O | 8.3 | 1.74 | – | 4.77 | 38.9 | 45.6 | 47 | – |
| CC(C)(C)Nc1c(-c2cc3ccccc3nc2Cl)nc2sccn12 | – | – | – | – | – | – | – | IC50 [19]: 11.5 µM |
| Cc1ccc(Cl)c(Nc2ccccc2C(=O)O)c1Cl [MECLOFENAMATE SODIUM] | – | – | 5.64 | – | – | – | – | – |
| Cc1c(C(=O)NC(CO)Cc2ccccc2)nc2ccc(Cl)cc2c1O (stereo unspecified) | 11.4 | 2.78 | – | 4.1 | 34.2 | 39.5 | 41.3 | – |
| Cc1c(C(=O)N2CCN(c3ccccc3)CC2)nc2ccc(Cl)cc2c1O | 8.6 | 1.13 | 5.91 | 7.61 | 49.5 | 61 | 65 | UI [8]: 2.5; Activity [14]: Toxic; Activity [10]: Non-Toxic; Activity [11]: Non-Toxic; Activity [12]: Toxic |
| Cc1ccc(-c2cc(C(F)(F)F)nn2-c2ccc(S(N)(=O)=O)cc2)cc1 [CELECOXIB] | – | – | – | – | 57.1 | 68.4 | 71.2 | – |
| Cc1c(C(=O)NCCc2ccc(N(C)C)cc2)nc2ccc(Cl)cc2c1O | 8.3 | 1.67 | – | 4.97 | 39.1 | 46.9 | 48.6 | – |
